{
  "source": "patent US7465471B2",
  "about": "“Palatability of aquaculture feed” (Novus International, Inc., priority 2003, dated 2008)",
  "key": {"dogs": {"tested_on": "dogs", "assay": "No-choice acceptance of food, dogs (Example 24)", "assay_type": "in vivo", "conditions": "Canine", "from_the_text": "(§1) Acceptance of food containing […]® or DLM was studied to evaluate dietary consumption under no-choice conditions. […] The urine pH of six of the cats was also monitored. The diets described in Tables 39 and 40 above were used."}, "cats": {"tested_on": "cats", "assay": "No-choice acceptance of food, cats (Example 24)", "assay_type": "in vivo", "conditions": "Feline", "from_the_text": "as §1"}, "mold": {"tested_on": "mold", "assay": "Mold growth in starter mash by CO2 formation in headspace (Examples 7, 8)", "conditions": "for mold growth (CO2 in headspace), words: 0.2% in starter mash", "description": "Fungal growth in basal starter mash was studied in compositions supplemented with DLM or Alimet® as the methionine source. Total microbial growth was monitored by measuring carbon dioxide (CO2) formation in sealed vessels at 28° C. over time.\nThe technique of using a closed system and measuring CO2 formation has been verified as an approximation of the conditions found in grain storage bins. See, e.g., Muir et al., Trans. ASAE, 28(5) 1673-1675 (1985), the contents of which are hereby incorporated by reference in their entirety.\nA mash starter mash feed (formulation shown in Table 9, below) was subdivided into three groups: basal (control), 0.2% DLM, or 0.2% Alimet®. The feed studied had no commercial mold inhibitors added, and is representative of a typical broiler feed.\nInitial moisture of the feed was 10.8%. After the addition of Alimet® or DLM, the moisture of the samples was adjusted by the addition of 2%, 4%, or 6% sterile distilled water to promote mold growth, achieving three moisture groups: […].\nFor each study, four replicate samples of each moisture group were mixed, and 600 g of the mixture was placed into 1 L containers, sealed, and placed at 28° C. in a temperature-controlled room. Draeger Detector tubes (CO2-measuring, obtained from Fisher Scientific) were used to measure the developed CO2 at different days following vessel sealing (two measurements were made per week). Draeger Short-Term Detector Tubes are glass tubes filled with inert carrier and an indicating reagent. The reagent produces a colorimetric indication in the presence of a particular gas (CO2). The concentration of gas is read directly from the discoloration on the tube's printed scale.\nThe specific mold species present were not identified. Statistical analysis was accomplished by using Duncan's multiple range test (SAS). Different letters on individual time points in FIGS. 9-11 indicate statistical differences of P<0.05.\nThe experiment described above in Example 7 was repeated with blends of 2.0 lb/ton, 1.5 lb/ton, 1.0 lb/ton or 0.5 lb/ton of 65% propionic acid and either […]. The blends were prepared according to the matrix outlined in Table 8, below. The 65% propionic acid was buffered with ammonium hydroxide to a pH of 5.5."}, "S. enteritidis": {"tested_on": "S. enteritidis", "assay": "S. enteritidis colony counts in broth (Examples 1-3, 17)"}, "E. coli [1]": {"tested_on": "E. coli", "assay_type": "cell-based", "conditions": "for Δ log: Table 2, 4 h, initial 5.24", "description": "Colony counts were performed according to standard operating procedures."}, "L. plantarum": {"tested_on": "L. plantarum", "assay": "L. plantarum colony counts in broth (Example 1)", "assay_type": "cell-based", "conditions": "for Δ log: Table 3, 6 h, log sample − log initial (5.04)", "description": "The fresh overnight culture of L. plantarum in brain heart infusion broth were used to inoculate medium 5. The test tubes were incubated under reduced oxygen atmosphere for 6 hours at 37° C. Colony counts were performed."}, "E. coli [2]": {"tested_on": "E. coli", "assay": "E. coli colony counts over time in soy broth at pH 4 or 7.3 (Example 5)", "assay_type": "cell-based", "conditions": "FIG. 5", "description": "The cultures were incubated, and colony counts performed at increasing times."}, "C. jejuni": {"tested_on": "C. jejuni", "assay": "C. jejuni colony counts in broth (Example 1)", "assay_type": "cell-based", "conditions": "for Δ log: Table 4, 6 h, initial 5.23", "description": "C. jejuni grown on Campylobacter blood-free selective agar was used for inoculation. Preston broth was incubated under reduced oxygen atmosphere for 6 hours at 37° C. Colony counts were performed."}, "Lactobacillus plantarum": {"tested_on": "Lactobacillus plantarum", "assay": "L. plantarum colony counts in broth at pH 3.5 (Example 16)", "assay_type": "cell-based", "conditions": "log 6 hours − log initial (5.61)", "description": "Fresh overnight culture L. plantarum in Brain Heart Infusion broth is used to inoculate medium 5 at a log 4.1 cfu/mL at pH 3.5. The tubes are incubated under oxygen reduced atmosphere for 6 hours at 37° C. Colony counts are performed according standard procedures."}},
  "note": "Values joined by “and” are separate entries in the source; they are usually repeats but may differ in a detail not shown here. Identical values can stand only once. Like-named read-outs stand apart in the source and are kept apart here.",
  "data": [
    {"molecule": "CSCCC(N)C(=O)O", "note": "(racemic) [DLM, DL-methionine]", "values": [
      {"measurement": "Total grams consumed, supplemented food", "setting": "dogs; DLM 0.1%", "value": "11,244 grams"},
      {"measurement": "Total grams consumed, supplemented food", "setting": "dogs; DLM 0.15%", "value": "13,542 grams"},
      {"measurement": "Total grams consumed, supplemented food", "setting": "cats; DLM 0.25%", "value": "1,842 grams"},
      {"measurement": "Total grams consumed, supplemented food", "setting": "cats; DLM 0.3%", "value": "1,754 grams"},
      {"measurement": "mold growth (CO2 in headspace), words", "setting": "mold; 12.8% moisture, FIG. 11", "value": "sharp increase in mold growth after only twenty days"},
      {"measurement": "mold growth (CO2 in headspace), words", "setting": "mold; 16.8% moisture, FIG. 9", "value": "showed mold growth within two days"},
      {"measurement": "mold growth, overall comparison", "setting": "mold; FIGS. 9, 10, 11, vs untreated and each other", "value": "more likely to develop mold"}
    ]},
    {"molecule": "O=CO", "note": "[formic acid]", "values": [
      {"measurement": "effect on inhibiting the growth of S. enteritidis", "setting": "S. enteritidis; pH 4.5", "value": "neither had a significant effect"},
      {"measurement": "reduction in S. enteritidis growth", "setting": "S. enteritidis; pH 4.5", "value": "approximately 1.2 log cfu/mL"},
      {"measurement": "reduction of growth of S. enteritidis", "setting": "S. enteritidis; pH 4.5", "value": "approximately 1.3 log cfu/mL"},
      {"measurement": "growth inhibition of S. enteritidis", "setting": "S. enteritidis; pH 6.75", "value": "~1", "unit": "log cfu/mL"},
      {"measurement": "inhibition of S. enteritidis", "setting": "S. enteritidis; pH 6.75", "value": "no inhibition"},
      {"measurement": "Δ log", "setting": "E. coli [1]; 0.108 g/L, pH 4.5", "value": "−0.05"},
      {"measurement": "Δ log", "setting": "E. coli [1]; 0.108 g/L, pH 6.75", "value": 2.24},
      {"measurement": "Δ log", "setting": "E. coli [1]; 0.30 g/L, pH 4.5", "value": "−0.28"},
      {"measurement": "Δ log", "setting": "E. coli [1]; 0.30 g/L, pH 6.75", "value": 2.26},
      {"measurement": "Δ log", "setting": "E. coli [1]; 0.83 g/L, pH 4.5", "value": "−0.16"},
      {"measurement": "Δ log", "setting": "E. coli [1]; 0.83 g/L, pH 6.75", "value": 2.25},
      {"measurement": "inhibition of E. coli", "setting": "E. coli [1]; pH 4.5", "value": "little or no inhibition"},
      {"measurement": "log cfu/mL", "setting": "E. coli [1]; pH 4.5", "value": "5.19 log cfu/mL and 4.96 log cfu/mL and 5.08 log cfu/mL"},
      {"measurement": "log reduction of E. coli growth", "setting": "E. coli [1]; pH 4.5", "value": "approximately 0.1 log"},
      {"measurement": "inhibition of E. coli", "setting": "E. coli [1]; pH 6.75", "value": "Neither Alimet® nor formic acid inhibited E. coli"},
      {"measurement": "log cfu/mL", "setting": "E. coli [1]; pH 6.75", "value": "7.48 log cfu/mL and 7.50 log cfu/mL and 7.49 log cfu/mL"},
      {"measurement": "inhibition of L. plantarum", "setting": "L. plantarum", "value": "Neither Alimet® nor formic acid inhibited L. plantarum"},
      {"measurement": "Δ log", "setting": "L. plantarum; 0.108 g/L, pH 4.5", "value": 0.71},
      {"measurement": "Δ log", "setting": "L. plantarum; 0.108 g/L, pH 6.75", "value": 0.84},
      {"measurement": "Δ log", "setting": "L. plantarum; 0.30 g/L, pH 4.5", "value": 0.70},
      {"measurement": "Δ log", "setting": "L. plantarum; 0.30 g/L, pH 6.75", "value": 1.19},
      {"measurement": "Δ log", "setting": "L. plantarum; 0.83 g/L, pH 4.5", "value": 0.52},
      {"measurement": "Δ log", "setting": "L. plantarum; 0.83 g/L, pH 6.75", "value": 1.15},
      {"measurement": "log cfu/mL", "setting": "L. plantarum; pH 4.5", "value": "5.75 log cfu/mL and 5.74 log cfu/mL and 5.56 log cfu/mL"},
      {"measurement": "decrease of colony counts of E. coli vs hydrochloric acid", "setting": "E. coli [2]", "value": "better than hydrochloric acid"},
      {"measurement": "Δ log", "setting": "C. jejuni; 0.108 g/L, pH 4.5", "value": "−1.37"},
      {"measurement": "Δ log", "setting": "C. jejuni; 0.108 g/L, pH 6.75", "value": 1.04},
      {"measurement": "Δ log", "setting": "C. jejuni; 0.30 g/L, pH 4.5", "value": "−2.60"},
      {"measurement": "Δ log", "setting": "C. jejuni; 0.30 g/L, pH 6.75", "value": 1.15},
      {"measurement": "Δ log", "setting": "C. jejuni; 0.83 g/L, pH 4.5", "value": "<−3.93"},
      {"measurement": "Δ log", "setting": "C. jejuni; 0.83 g/L, pH 6.75", "value": 1.02},
      {"measurement": "inhibition of C. jejuni", "setting": "C. jejuni; pH 4.5", "value": "comparable inhibition"},
      {"measurement": "antibacterial activity against C. jejuni", "setting": "C. jejuni; pH 6.75", "value": "No antibacterial activity"},
      {"measurement": "log cfu/mL", "setting": "C. jejuni; pH 6.75", "value": "6.27 log cfu/mL and 6.38 log cfu/mL and 6.25 log cfu/mL"},
      {"measurement": "Δ log", "setting": "Lactobacillus plantarum; Table 23, 3 g/kg", "value": "−2.42"},
      {"measurement": "Δ log", "setting": "Lactobacillus plantarum; Table 23, 5 g/kg", "value": "−5.91"}
    ]}
  ]
}
